According to US20240217978A1 (CHONG KUN DANG PHARMACEUTICAL CORP., priority 2021, published 2024):

Target: human adenosine A2a receptor (Homo sapiens (Human), UniProt P29274)
Experiment: A2a receptor binding affinity, [3H]-NECA radioligand binding test
Conditions: [3H]-NECA 37 nM; membrane from HEK-293 cells transfected with human adenosine A2a receptor
How it was run: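 Membranes from HEK-293 cells expressing human A2a receptor were incubated with [3H]-NECA (final 37 nM) and compound for 1 h at room temperature in 50 mM Tris, 10 mM MgCl2, 1 mM EDTA, pH 7.4. Bound ligand was filtered on PEI-coated plates and counted by scintillation to derive IC50 (μM).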

human adenosine A2a receptor, sequence (P29274 whole entry): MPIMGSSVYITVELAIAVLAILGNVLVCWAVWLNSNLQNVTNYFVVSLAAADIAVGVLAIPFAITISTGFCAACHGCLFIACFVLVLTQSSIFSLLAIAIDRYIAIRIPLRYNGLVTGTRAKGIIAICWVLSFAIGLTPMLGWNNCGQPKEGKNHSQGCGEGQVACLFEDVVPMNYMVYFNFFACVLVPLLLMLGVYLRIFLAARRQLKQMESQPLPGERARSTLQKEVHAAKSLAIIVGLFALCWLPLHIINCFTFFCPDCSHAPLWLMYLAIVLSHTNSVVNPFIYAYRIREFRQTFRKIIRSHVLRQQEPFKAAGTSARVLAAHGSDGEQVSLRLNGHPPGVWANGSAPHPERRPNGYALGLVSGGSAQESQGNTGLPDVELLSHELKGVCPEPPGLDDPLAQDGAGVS

Row | Structure (SMILES) | IC50 [nM]
1 | Nc1nc(N2CCC[C@H]2C(=O)N2CCC3(CC2)CN(CC(F)(F)F)C3)nc2nc(-c3ccco3)nn12 [Example 362, (S)-(1-(7-amino-2-(furan-2-yl)-[1,2,4]triazolo[1,5-a][1,3,5]triazin-5-yl)pyrrolidin-2-yl)(2-(2,2,2-trifluoroethyl)-2,7-diazaspiro[3.5]nonan-7-yl)methanone] | 30
2 | Nc1nc(N2CCC[C@H]2C(=O)N2CC3(CCN(CC(F)(F)F)CC3)C2)nc2nc(-c3ccco3)nn12 [Example 363, (S)-(1-(7-amino-2-(furan-2-yl)-[1,2,4]triazolo[1,5-a][1,3,5]triazin-5-yl)pyrrolidin-2-yl)(7-(2,2,2-trifluoroethyl)-2,7-diazaspiro[3-5]nonan-2-yl)methanone] | 12
3 | CC(F)(F)CN1CC2(CCN(C(=O)[C@@H]3CCCN3c3nc(N)n4nc(-c5ccco5)nc4n3)CC2)C1 [Example 364, (S)-(1-(7-amino-2-(furan-2-yl)-[1,2,4]triazolo[1,5-a][1,3,5]triazin-5-yl)pyrrolidin-2-yl)(2-(2,2-difluoropropyl)-2,7-diazaspiro[3.5]nonan-7-yl)methanone] | 12
4 | CC(F)(F)CN1CCC2(CC1)CN(C(=O)[C@@H]1CCCN1c1nc(N)n3nc(-c4ccco4)nc3n1)C2 [Example 365, (S)-(1-(7-amino-2-(furan-2-yl)-[1,2,4]triazolo[1,5-a][1,3,5]triazin-5-yl)pyrrolidin-2-yl)(7-(2,2-difluoropropyl)-2,7-diazaspiro[3-5]nonan-2-yl)methanone] | 13
5 | C[C@H](Nc1nc(N)n2nc(-c3ccco3)nc2n1)C(=O)N1CC2(CCN(CC(C)(F)F)CC2)C1 [Example 366, (S)-2-((7-amino-2-(furan-2-yl)-[1,2,4]triazolo[1,5-a][1,3,5]triazin-5-yl)amino)-1-(7-(2,2-difluoropropyl)-2,7-diazaspiro[3-5]nonan-2-yl)propan-1-one] | 8
6 | CC(C)[C@H](Nc1nc(N)n2nc(-c3ccco3)nc2n1)C(=O)N1CCN(CCC(F)(F)F)CC1 [Example 367, (S)-2-((7-amino-2-(furan-2-yl)-[1,2,4]triazolo[1,5-a][1,3,5]triazin-5-yl)amino)-3-methyl-1-(4-(3,3,3-trifluoropropyl)piperazin-1-yl)butan-1-one] | 14
7 | CC[C@H](Nc1nc(N)n2nc(-c3ccco3)nc2n1)C(=O)N1CCN(C(=O)CC(C)(C)O)CC1 [Example 368, (S)-1-(4-(2-((7-amino-2-(furan-2-yl)-[1,2,4]triazolo[1,5-a][1,3,5]triazin-5-yl)amino)butanoyl)piperazin-1-yl)-3-hydroxy-3-methylbutan-1-one] | 3
8 | CC(C)[C@H](Nc1nc(N)n2nc(-c3ccco3)nc2n1)C(=O)N1CCN(C(=O)CC(C)(C)O)CC1 [Example 369, 1-(4-((7-amino-2-(furan-2-yl)-[1,2,4]triazolo[1,5-a][1,3,5]triazin-5-yl)-L-valyl)piperazin-1-yl)-3-hydroxy-3-methylbutan-1-one] | 14
9 | CC(C)(O)CC(=O)N1CCN(C(=O)[C@@H](Nc2nc(N)n3nc(-c4ccco4)nc3n2)C2CC2)CC1 [Example 370, (S)-1-(4-(2-((7-amino-2-(furan-2-yl)-[1,2,4]triazolo[1,5-a][1,3,5]triazin-5-yl)amino)-2-cyclopropylacetyl)piperazin-1-yl)-3-hydroxy-3-methylbutan-1-one] | 4
10 | C[C@@H]1CN(CC(F)F)CCN1C(=O)[C@@H]1CCCN1c1nc(N)n2nc(-c3ccco3)nc2n1 [Example 371, ((S)-1-(7-amino-2-(furan-2-yl)-[1,2,4]triazolo[1,5-a][1,3,5]triazin-5-yl)pyrrolidin-2-yl)((R)-4-(2,2-difluoroethyl)-2-methylpiperazin-1-yl)methanone] | 11
11 | C[C@@H]1CN(CC(C)(F)F)CCN1C(=O)[C@@H]1CCCN1c1nc(N)n2nc(-c3ccco3)nc2n1 [Example 372, ((S)-1-(7-amino-2-(furan-2-yl)-[1,2,4]triazolo[1,5-a][1,3,5]triazin-5-yl)pyrrolidin-2-yl)((R)-4-(2,2-difluoropropyl)-2-methylpiperazin-1-yl) methanone] | 1
12 | C[C@@H]1CN(CC(C)(C)O)CCN1C(=O)[C@@H]1CCCN1c1nc(N)n2nc(-c3ccco3)nc2n1 [Example 373, ((S)-1-(7-amino-2-(furan-2-yl)-[1,2,4]triazolo[1,5-a][1,3,5]triazin-5-yl)pyrrolidin-2-yl)((R)-4-(2-hydroxy-2-methylpropyl)-2-methylpiperazin-1-yl)methanone] | 2
13 | C[C@@H]1CN(CC(C)(C)F)CCN1C(=O)[C@@H]1CCCN1c1nc(N)n2nc(-c3ccco3)nc2n1 [Example 374, ((S)-1-(7-amino-2-(furan-2-yl)-[1,2,4]triazolo[1,5-a][1,3,5]triazin-5-yl)pyrrolidin-2-yl)((R)-4-(2-fluoro-2-methylpropyl)-2-methylpiperazin-1-yl) methanone] | 0.8
14 | C[C@H](Nc1cc2nc(-c3ccco3)nn2c(N)n1)C(=O)N1CCN(CC(C)(C)F)CC1 [Example 375, (S)-2-((5-amino-2-(furan-2-yl)-[1,2,4]triazolo[1,5-c]pyrimidin-7-yl)amino)-1-(4-(2-fluoro-2-methylpropyl)piperazin-1-yl)propan-1-one] | 8
15 | Nc1nc(N2CCC[C@H]2C(=O)N2CCC(C3CCN(CC(F)(F)F)CC3)CC2)cc2nc(-c3ccco3)nn12 [Example 376, (S)-(1-(5-amino-2-(furan-2-yl)-[1,2,4]triazolo[1,5-c]pyrimidin-7-yl)pyrrolidin-2-yl)(1′-(2,2,2-trifluoroethyl)-[4,4′-bipiperidin]-1-yl)methanone] | 1
16 | Nc1nc(N2CC[C@H]2C(=O)N2CCC(C3CCN(CC(F)(F)F)CC3)CC2)cc2nc(-c3ccco3)nn12 [Example 377, (S)-(1-(5-amino-2-(furan-2-yl)-[1,2,4]triazolo[1,5-c]pyrimidin-7-yl)azetidin-2-yl)(1′-(2,2,2-trifluoroethyl)-[4,4′-bipiperidin]-1-yl)methanone] | 0.1

The next lines start with the values.

Row | IC50 [nM] | Structure (SMILES)
17 | 0.7 | Nc1nc(N2CC[C@H]2C(=O)N2CCC(C3CCN(CC(F)F)CC3)CC2)cc2nc(-c3ccco3)nn12 [Example 378, (S)-(1-(5-amino-2-(furan-2-yl)-[1,2,4]triazolo[1,5-c]pyrimidin-7-yl)azetidin-2-yl)(1′-(2,2-difluoroethyl)-[4,4′-bipiperidin]-1-yl)methanone]
18 | 2 | CC(F)(F)CN1CCC(C2CCN(C(=O)[C@@H]3CCN3c3cc4nc(-c5ccco5)nn4c(N)n3)CC2)CC1 [Example 379, (S)-(1-(5-amino-2-(furan-2-yl)-[1,2,4]triazolo[1,5-c]pyrimidin-7-yl)azetidin-2-yl)(1′-(2,2-difluoropropyl)-[4,4′-bipiperidin]-1-yl)methanone]
19 | 5 | COCCN1CCC(C2CCN(C(=O)[C@@H]3CCN3c3cc4nc(-c5ccco5)nn4c(N)n3)CC2)CC1 [Example 380, (S)-(1-(5-amino-2-(furan-2-yl)-[1,2,4]triazolo[1,5-c]pyrimidin-7-yl)azetidin-2-yl)(1′-(2-methoxyethyl)-[4,4′-bipiperidin]-1-yl)methanone]
20 | 9 | CC(C)(O)CN1CCC(C2CCN(C(=O)[C@@H]3CCN3c3cc4nc(-c5ccco5)nn4c(N)n3)CC2)CC1 [Example 381, (S)-(1-(5-amino-2-(furan-2-yl)-[1,2,4]triazolo[1,5-c]pyrimidin-7-yl)azetidin-2-yl)(1′-(2-hydroxy-2-methylpropyl)-[4,4′-bipiperidin]-1-yl)methanone]
21 | 3 | CC(C)(F)CN1CCC(C2CCN(C(=O)[C@@H]3CCN3c3cc4nc(-c5ccco5)nn4c(N)n3)CC2)CC1 [Example 382, (S)-(1-(5-amino-2-(furan-2-yl)-[1,2,4]triazolo[1,5-c]pyrimidin-7-yl)azetidin-2-yl)(1′-(2-fluoro-2-methylpropyl)-[4,4′-bipiperidin]-1-yl)methanone]
22 | 2 | CCCCN1CCC(C2CCN(C(=O)[C@@H]3CCN3c3cc4nc(-c5ccco5)nn4c(N)n3)CC2)CC1 [Example 383, (S)-(1-(5-amino-2-(furan-2-yl)-[1,2,4]triazolo[1,5-c]pyrimidin-7-yl)azetidin-2-yl)(1′-butyl-[4,4′-bipiperidin]-1-yl)methanone]
23 | 0.5 | Nc1nc(N2CCC[C@H]2C(=O)N2CCN(c3ncc4c(n3)COC4)CC2)nc2nc(-c3ccco3)nn12 [Example 384, 2-(4-((7-amino-2-(furan-2-yl)-[1,2,4]triazolo[1,5-a][1,3,5]triazin-5-yl)-L-prolyl)piperazin-1-yl)-5,7-dihydrofuro[3,4-d]pyrimidine]
24 | 0.8 | Nc1nc(N2CC3(CC3)C[C@H]2C(=O)N2CCN(CC(F)(F)F)CC2)nc2nc(-c3ccco3)nn12 [Example 385, (S)-(5-(7-amino-2-(furan-2-yl)-[1,2,4]triazolo[1,5-a][1,3,5]triazin-5-yl)-5-azaspiro[2.4]heptan-6-yl)(4-(2,2,2-trifluoroethyl)piperazin-1-yl)methanone]
25 | 8 | CC(C)(F)CN1CCN(C(=O)[C@@H]2CC3(CC3)CN2c2nc(N)n3nc(-c4ccco4)nc3n2)CC1 [Example 386, (S)-(5-(7-amino-2-(furan-2-yl)-[1,2,4]triazolo[1,5-a][1,3,5]triazin-5-yl)-5-azaspiro[2.4]heptan-6-yl)(4-(2-fluoro-2-methylpropyl)piperazin-1-yl)methanone]
26 | 1 | CC1(C)C[C@@H](C(=O)N2CCN(CC(F)(F)F)CC2)N(c2nc(N)n3nc(-c4ccco4)nc3n2)C1 [Example 387, (S)-(1-(7-amino-2-(furan-2-yl)-[1,2,4]triazolo[1,5-a][1,3,5]triazin-5-yl)-4,4-dimethylpyrrolidin-2-yl)(4-(2,2,2-trifluoroethyl)piperazin-1-yl)methanone]
27 | 9 | CC(C)(F)CN1CCN(C(=O)CNc2nc(N)n3nc(-c4ccco4)nc3n2)CC1 [Example 388, 2-((7-amino-2-(furan-2-yl)-[1,2,4]triazolo[1,5-a][1,3,5]triazin-5-yl)amino)-1-(4-(2-fluoro-2-methylpropyl)piperazin-1-yl)ethan-1-one]
